We go through six compounds from ChEMBL document CHEMBL4033774, “Class I HDAC Inhibitors: Potential New Epigenetic Therapeutics for Alcohol Use Disorder (AUD)” (J Med Chem, 2018).

For series [1], the system named is Mus musculus. Kind of series: Decrease in alcohol intake in C57BL/6J mouse at 50 mg/kg, ip relative to control. It is filed as functional. Set-up: scale not given: the % may be the effect or the level left.
Series [2] has as its system Rattus norvegicus. Kind of series: Decrease in alcohol intake in rat assessed as operant alcohol self-administration at 50 mg/kg, ip administered once in a week relative to control. It is filed as functional. Set-up: scale not given: the % may be the effect or the level left.
Series [3] concerns Mus musculus. Kind of series: Decrease in alcohol intake in C57BL/6J mouse at 100 mg/kg, ip relative to control. It is filed as functional. The arrangement: scale not given: the % may be the effect or the level left.
Series [4] concerns Rattus norvegicus. Kind of series: Decrease in alcohol intake in rat model of voluntary heavy drinking assessed as decrease in operant alcohol self-administration at 500 uM, icv administered twice relative to control. It is filed as functional. Set-up: scale not given: the % may be the effect or the level left.
Series [5] relates to Rattus norvegicus. Kind of series: Decrease in alcohol intake in rat model of voluntary heavy drinking assessed as decrease in motivation to consume alcohol at 500 uM, icv administered twice relative to control. It is filed as functional. Set-up: scale not given: the % may be the effect or the level left.
Series [6] concerns Rattus norvegicus. The series is described as follows: Decrease in alcohol intake in rat model of voluntary heavy drinking assessed as decrease in relapse phenomenon after period of abstinence at 500 uM, icv administered twice relative to control. It is filed as functional. The arrangement: scale not given: the % may be the effect or the level left.
Series [7] can be described thus: Lipophilicity, log D of the compound at pH 7.4. It is filed as physicochemical. Particulars: buffer.
In series [8] the test system is Brain. The series is described as follows: Drug uptake in iv dosed baboon brain after 90 mins by PET imaging method relative to control. It is filed as ADME, organism-based. Particulars: papio anubis, in vivo, 1.5 h.
Series [9] relates to Brain. Kind of series: Drug uptake in iv dosed rat brain after 90 mins by PET imaging method relative to control. As to conditions: in vivo, 1.5 h. It is filed as ADME, organism-based.
A short description of series [10]: Half life in human at 6 mg/m2, po. It is filed as ADME.
The nature of series [11]: Half life in human at 2 mg/m2 dosed twice a week. It is filed as ADME, organism-based. Particulars: in vivo.
Series [12] can be described thus: Lipophilicity, log P of the compound at pH 7.4. It is filed as physicochemical. Particulars: buffer.
Series [13] deals with Rattus norvegicus. The series is described as follows: Decrease in alcohol intake in rat assessed as ethanol intake at 2 mg/kg, ip administered daily during last 3 days of 10 day period of two-bottel choice paradigm (reference value: 7 g/kg). It is filed as functional.
Series [14] has as its target T1, Histone deacetylase 2 (Homo sapiens, UniProt Q92769). The series is described as follows: Inhibition of full length 6His-tagged HDAC2 (unknown origin) expressed in baculovirus infected Sf9 insect cells incubated for 17 hrs in presence of FAM-labeled acetylated peptide substrate by fluorescence assay.
The target in series [15] is T2, Histone deacetylase 1 (Homo sapiens, UniProt Q13547). Kind of series: Inhibition of full length 6His-tagged HDAC1 (unknown origin) expressed in baculovirus infected Sf9 insect cells incubated for 17 hrs in presence of FAM-labeled acetylated peptide substrate by fluorescence assay.
For series [16], the target named is T3, Protein deacetylase HDAC6 (Homo sapiens, UniProt Q9UBN7).
T3 sequence (Q9UBN7 whole entry): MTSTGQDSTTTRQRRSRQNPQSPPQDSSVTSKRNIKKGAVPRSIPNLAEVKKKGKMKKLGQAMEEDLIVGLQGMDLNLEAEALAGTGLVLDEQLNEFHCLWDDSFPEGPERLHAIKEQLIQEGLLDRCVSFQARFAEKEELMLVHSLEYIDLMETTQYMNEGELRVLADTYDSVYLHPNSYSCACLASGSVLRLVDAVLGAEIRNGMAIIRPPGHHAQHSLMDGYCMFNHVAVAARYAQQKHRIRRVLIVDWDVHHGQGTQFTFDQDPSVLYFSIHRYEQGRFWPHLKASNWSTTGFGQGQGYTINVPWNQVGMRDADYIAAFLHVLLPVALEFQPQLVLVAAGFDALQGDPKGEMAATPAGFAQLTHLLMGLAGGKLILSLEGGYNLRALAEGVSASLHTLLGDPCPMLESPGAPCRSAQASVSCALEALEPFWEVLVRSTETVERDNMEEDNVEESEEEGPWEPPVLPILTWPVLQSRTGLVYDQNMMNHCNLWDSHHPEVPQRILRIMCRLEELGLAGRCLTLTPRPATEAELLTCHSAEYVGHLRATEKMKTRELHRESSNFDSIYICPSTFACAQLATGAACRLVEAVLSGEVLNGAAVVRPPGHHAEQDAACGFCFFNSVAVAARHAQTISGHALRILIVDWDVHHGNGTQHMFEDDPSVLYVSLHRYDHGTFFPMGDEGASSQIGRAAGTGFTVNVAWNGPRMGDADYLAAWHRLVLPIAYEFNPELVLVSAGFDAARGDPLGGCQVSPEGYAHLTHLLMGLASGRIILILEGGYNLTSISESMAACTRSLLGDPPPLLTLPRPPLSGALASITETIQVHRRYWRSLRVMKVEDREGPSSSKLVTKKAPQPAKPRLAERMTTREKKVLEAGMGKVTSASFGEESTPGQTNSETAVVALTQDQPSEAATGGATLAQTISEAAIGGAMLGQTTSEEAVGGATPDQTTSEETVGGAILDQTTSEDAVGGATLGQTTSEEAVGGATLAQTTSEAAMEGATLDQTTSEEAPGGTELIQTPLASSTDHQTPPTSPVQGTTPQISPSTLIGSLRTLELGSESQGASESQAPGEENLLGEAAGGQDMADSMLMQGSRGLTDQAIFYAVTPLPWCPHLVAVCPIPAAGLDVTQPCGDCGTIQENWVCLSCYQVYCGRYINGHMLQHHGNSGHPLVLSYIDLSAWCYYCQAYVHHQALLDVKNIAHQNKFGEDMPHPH
The series is described as follows: Inhibition of full length 6His-tagged HDAC6 (unknown origin) expressed in baculovirus infected Sf9 insect cells incubated for 17 hrs in presence of FAM-labeled acetylated peptide substrate by fluorescence assay.

Another series addresses T4, Histone deacetylase 8 (Homo sapiens, UniProt Q9BY41).
T4 sequence (Q9BY41 whole entry): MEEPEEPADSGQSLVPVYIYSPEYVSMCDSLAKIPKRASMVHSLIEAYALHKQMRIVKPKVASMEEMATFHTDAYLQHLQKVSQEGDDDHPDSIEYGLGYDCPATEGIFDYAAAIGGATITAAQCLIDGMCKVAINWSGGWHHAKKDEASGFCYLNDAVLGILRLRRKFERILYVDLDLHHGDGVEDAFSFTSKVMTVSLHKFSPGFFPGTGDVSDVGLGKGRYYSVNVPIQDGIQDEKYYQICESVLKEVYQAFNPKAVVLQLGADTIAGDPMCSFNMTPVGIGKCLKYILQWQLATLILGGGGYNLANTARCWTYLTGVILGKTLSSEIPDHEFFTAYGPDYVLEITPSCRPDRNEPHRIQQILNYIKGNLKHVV
Kind of series: Inhibition of full length 6His-tagged HDAC8 (unknown origin) expressed in baculovirus infected Sf9 insect cells incubated for 17 hrs in presence of FAM-labeled acetylated peptide substrate by fluorescence assay.

Series [17] addresses T5, Polyamine deacetylase HDAC10 (Homo sapiens, UniProt Q969S8).
T5 sequence (Q969S8 whole entry): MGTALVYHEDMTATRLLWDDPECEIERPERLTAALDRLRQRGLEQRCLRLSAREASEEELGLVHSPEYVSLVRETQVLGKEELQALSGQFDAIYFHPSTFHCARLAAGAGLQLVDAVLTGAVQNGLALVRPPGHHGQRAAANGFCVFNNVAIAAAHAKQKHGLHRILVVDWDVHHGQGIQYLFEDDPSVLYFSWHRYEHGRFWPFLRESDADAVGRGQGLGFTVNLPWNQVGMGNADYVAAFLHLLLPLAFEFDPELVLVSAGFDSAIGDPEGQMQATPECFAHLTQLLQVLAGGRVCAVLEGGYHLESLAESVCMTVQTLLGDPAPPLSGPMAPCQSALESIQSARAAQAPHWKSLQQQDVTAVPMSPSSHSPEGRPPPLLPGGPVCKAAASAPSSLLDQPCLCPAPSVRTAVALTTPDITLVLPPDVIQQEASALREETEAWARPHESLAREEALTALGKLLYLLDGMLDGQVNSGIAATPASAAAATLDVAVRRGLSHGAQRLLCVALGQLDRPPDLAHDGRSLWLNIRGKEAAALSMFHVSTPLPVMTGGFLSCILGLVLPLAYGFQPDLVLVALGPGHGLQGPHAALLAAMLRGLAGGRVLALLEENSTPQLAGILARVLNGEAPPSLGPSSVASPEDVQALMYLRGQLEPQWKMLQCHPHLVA
Kind of series: Inhibition of C-terminal 6His-tagged HDAC10 (unknown origin) (632 to 669 residues) expressed in baculovirus infected Sf9 insect cells incubated for 17 hrs in presence of FAM-labeled acetylated peptide substrate by fluorescence assay.

Series [18] is described as follows: Drug uptake in baboon hippocampus after 20 mins by LC-MS/MS analysis. It is filed as ADME, tissue-based. As to conditions: papio anubis, in vivo.
The nature of series [19]: Lipophilicity, log P of compound by LC-MS/MS analysis. It is filed as physicochemical. Particulars: octanol/water.
Another series deals with Histone deacetylase 4 (Homo sapiens, UniProt P56524). Kind of series: Inhibition of HDAC4 (unknown origin).
For series [20], the target named is T1, Histone deacetylase 2. The series is described as follows: Inhibition of HDAC2 (unknown origin).
For series [21], the target named is T2, Histone deacetylase 1. Kind of series: Inhibition of HDAC1 (unknown origin).
Another series concerns the target Histone deacetylase 3 (Homo sapiens, UniProt O15379). The series is described as follows: Inhibition of HDAC3 (unknown origin).
Series [22] concerns the target T3, Protein deacetylase HDAC6. The series is described as follows: Inhibition of HDAC6 (unknown origin).
Series [23] has as its target T5, Polyamine deacetylase HDAC10. The series is described as follows: Inhibition of HDAC10 (unknown origin).
A further series deals with T6, Histone deacetylase 11 (Homo sapiens, UniProt Q96DB2).
T6 sequence (Q96DB2 whole entry): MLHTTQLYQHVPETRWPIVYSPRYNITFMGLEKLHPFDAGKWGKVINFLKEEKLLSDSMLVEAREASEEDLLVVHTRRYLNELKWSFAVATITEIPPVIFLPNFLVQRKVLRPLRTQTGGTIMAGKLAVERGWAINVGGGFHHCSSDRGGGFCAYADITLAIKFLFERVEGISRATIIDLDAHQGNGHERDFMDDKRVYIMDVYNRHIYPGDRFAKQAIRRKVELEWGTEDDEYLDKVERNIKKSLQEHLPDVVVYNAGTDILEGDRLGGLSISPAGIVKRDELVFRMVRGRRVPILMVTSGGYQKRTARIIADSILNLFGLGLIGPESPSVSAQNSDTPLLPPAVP
Kind of series: Inhibition of HDAC11 (unknown origin).

pIC50: −log10 of the molar value.

T1 sequence (Q92769 whole entry): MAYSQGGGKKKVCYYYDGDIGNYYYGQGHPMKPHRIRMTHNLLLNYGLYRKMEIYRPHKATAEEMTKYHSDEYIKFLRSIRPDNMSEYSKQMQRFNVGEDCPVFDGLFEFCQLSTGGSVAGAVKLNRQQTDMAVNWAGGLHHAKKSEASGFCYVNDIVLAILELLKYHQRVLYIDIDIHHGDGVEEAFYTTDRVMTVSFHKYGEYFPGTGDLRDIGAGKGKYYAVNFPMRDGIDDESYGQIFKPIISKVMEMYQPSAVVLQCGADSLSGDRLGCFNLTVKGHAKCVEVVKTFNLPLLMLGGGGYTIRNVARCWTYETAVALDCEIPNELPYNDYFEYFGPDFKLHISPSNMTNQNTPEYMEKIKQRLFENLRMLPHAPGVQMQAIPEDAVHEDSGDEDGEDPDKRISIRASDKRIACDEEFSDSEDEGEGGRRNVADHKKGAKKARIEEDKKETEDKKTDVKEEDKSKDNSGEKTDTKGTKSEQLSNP
T2 sequence (Q13547 whole entry): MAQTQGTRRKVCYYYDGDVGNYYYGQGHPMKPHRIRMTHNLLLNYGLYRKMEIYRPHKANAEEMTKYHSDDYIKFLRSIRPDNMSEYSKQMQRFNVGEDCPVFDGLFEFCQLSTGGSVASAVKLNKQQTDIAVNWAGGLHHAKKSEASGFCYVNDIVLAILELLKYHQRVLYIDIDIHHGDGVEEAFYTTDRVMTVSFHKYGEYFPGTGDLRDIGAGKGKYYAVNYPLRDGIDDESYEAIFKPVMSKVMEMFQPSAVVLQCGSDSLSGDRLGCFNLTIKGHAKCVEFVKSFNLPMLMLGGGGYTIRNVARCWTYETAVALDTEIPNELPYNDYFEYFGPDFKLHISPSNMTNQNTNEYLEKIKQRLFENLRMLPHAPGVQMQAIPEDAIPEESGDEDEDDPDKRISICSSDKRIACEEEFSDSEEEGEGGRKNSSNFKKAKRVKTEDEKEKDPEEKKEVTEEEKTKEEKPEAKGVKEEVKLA
Histone deacetylase 3, sequence (O15379 whole entry): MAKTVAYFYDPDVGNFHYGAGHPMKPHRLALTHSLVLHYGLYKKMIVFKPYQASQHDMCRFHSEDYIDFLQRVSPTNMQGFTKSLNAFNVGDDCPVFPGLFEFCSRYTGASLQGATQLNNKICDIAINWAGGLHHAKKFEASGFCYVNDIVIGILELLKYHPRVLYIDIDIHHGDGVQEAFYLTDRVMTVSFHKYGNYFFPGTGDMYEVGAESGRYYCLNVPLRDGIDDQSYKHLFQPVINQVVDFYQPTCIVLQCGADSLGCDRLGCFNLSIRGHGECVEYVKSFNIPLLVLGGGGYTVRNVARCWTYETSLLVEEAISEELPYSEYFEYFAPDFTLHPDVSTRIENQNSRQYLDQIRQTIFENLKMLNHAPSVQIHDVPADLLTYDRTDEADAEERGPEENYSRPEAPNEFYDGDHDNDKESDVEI
Histone deacetylase 4, sequence (P56524 whole entry): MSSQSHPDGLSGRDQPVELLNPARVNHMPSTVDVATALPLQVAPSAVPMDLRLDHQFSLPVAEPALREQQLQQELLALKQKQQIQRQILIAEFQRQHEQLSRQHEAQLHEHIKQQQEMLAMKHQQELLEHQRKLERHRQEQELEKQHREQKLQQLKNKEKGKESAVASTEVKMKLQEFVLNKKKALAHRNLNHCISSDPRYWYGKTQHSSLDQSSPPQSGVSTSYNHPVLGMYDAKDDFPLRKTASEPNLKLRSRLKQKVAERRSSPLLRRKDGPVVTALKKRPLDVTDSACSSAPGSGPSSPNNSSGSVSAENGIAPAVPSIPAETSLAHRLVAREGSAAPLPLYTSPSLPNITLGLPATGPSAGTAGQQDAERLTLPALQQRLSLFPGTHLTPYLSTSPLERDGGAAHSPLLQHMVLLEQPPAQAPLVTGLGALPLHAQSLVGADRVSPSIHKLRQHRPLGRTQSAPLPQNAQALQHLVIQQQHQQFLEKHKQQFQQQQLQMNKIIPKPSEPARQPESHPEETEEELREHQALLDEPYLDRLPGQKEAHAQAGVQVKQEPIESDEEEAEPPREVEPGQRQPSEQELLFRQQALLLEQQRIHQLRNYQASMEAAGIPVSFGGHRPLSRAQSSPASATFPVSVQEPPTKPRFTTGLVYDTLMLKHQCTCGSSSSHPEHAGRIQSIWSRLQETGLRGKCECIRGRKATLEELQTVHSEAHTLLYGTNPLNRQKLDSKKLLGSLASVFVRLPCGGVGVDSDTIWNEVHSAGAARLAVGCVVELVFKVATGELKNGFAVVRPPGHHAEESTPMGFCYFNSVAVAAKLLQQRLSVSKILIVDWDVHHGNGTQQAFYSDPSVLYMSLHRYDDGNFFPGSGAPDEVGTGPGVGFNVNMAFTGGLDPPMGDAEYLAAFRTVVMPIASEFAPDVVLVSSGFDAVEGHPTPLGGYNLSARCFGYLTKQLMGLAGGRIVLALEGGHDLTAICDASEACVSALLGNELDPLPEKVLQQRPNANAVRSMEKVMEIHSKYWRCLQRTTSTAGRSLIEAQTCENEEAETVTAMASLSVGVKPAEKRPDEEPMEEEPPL

Regarding `O=C(CCCCCCC(=O)Nc1ccccc1)NO` [VORINOSTAT], the Activity is reported as 40% with Mus musculus [1], 20% in the series on Rattus norvegicus [2] and 40% with Mus musculus [3].

What is called logD is lipophilicity at a set pH, counting ionised and neutral species. Usually half-life stands for how long it takes for the measured level to halve. On to `Nc1ccccc1NC(=O)c1ccc(CNC(=O)OCc2cccnc2)cc1` [ENTINOSTAT], for which the Activity in the series on Rattus norvegicus [4] worked out at 75%; in the series on Rattus norvegicus [5] it was 25%; in the series on Rattus norvegicus [6], 50%. In addition, the figures for the log distribution coefficient (logD) in series [7] and in series [12] were 1.8 and 2.5, respectively. For the same compound, the Drug uptake is under 0.001% with Brain [8] and under 0.1% in the series on Brain [9]. Further, the half-life in [10] is 33.9 h; in [11], 52 to 150 h.

Consider `CC(/C=C/C(=O)NO)=C\[C@@H](C)C(=O)c1ccc(N(C)C)cc1` [TRICHOSTATIN], for which the Activity in the series on Rattus norvegicus [13] is under 1 g/kg.

For orientation: pIC50 means the negative decadic logarithm of the IC50, by convention in mol/L. Turning to `Nc1ccccc1NC(=O)CCCCCCC(=O)Nc1cccc(-c2cn(-c3ccccc3)nn2)c1`, the pIC50 (at Histone deacetylase 2 [14]; on Histone deacetylase 1 [15]; in series [16]; on Histone deacetylase 8; in series [17]) was under 4.52 throughout.

Broadly, the logP is the decadic logarithm of the partition coefficient of the neutral form, usually between octanol and water. Turning to `COc1ccc(Cn2ccc3ccc(C(=O)NO)cc32)cc1`, in series [18], the Drug uptake turned out to be 30%. For the same compound, the log partition coefficient (logP) in series [19] stood at 2.61.

Regarding `COc1ccc(/C=C/C(=O)NO)c(-c2ccc(-c3ccccc3)cc2)c1`, the pIC50 against Histone deacetylase 4 is under 4.70; against Histone deacetylase 2 [20], under 4.70; on Histone deacetylase 1 [21] it was 5.52; on Histone deacetylase 3, 5.52; in series [22], under 4.70; in series [23] it was under 4.70. Further, at Histone deacetylase 11, the pIC50 is under 4.70.
